Test results taken from US4647576A, “Trans-6-[2-(substitutedpyrrol-1-yl)alkyl]-pyran-2-one inhibitors of cholesterol synthesis” (Warner-Lambert Company, priority 1984, dated 1987).

Key:
HMG-CoA reductase = target: T1, HMG-CoA reductase (Rattus norvegicus, UniProt P51639); test: COR screen: conversion of 14C-HMG-CoA to 14C-mevalonate by purified HMG-CoA reductase; type: biochemical; conditions: purified enzyme preparation, footnote: adjusted for a standard IC50 value for compactin (internal standard)
T1 sequence (P51639 1-887): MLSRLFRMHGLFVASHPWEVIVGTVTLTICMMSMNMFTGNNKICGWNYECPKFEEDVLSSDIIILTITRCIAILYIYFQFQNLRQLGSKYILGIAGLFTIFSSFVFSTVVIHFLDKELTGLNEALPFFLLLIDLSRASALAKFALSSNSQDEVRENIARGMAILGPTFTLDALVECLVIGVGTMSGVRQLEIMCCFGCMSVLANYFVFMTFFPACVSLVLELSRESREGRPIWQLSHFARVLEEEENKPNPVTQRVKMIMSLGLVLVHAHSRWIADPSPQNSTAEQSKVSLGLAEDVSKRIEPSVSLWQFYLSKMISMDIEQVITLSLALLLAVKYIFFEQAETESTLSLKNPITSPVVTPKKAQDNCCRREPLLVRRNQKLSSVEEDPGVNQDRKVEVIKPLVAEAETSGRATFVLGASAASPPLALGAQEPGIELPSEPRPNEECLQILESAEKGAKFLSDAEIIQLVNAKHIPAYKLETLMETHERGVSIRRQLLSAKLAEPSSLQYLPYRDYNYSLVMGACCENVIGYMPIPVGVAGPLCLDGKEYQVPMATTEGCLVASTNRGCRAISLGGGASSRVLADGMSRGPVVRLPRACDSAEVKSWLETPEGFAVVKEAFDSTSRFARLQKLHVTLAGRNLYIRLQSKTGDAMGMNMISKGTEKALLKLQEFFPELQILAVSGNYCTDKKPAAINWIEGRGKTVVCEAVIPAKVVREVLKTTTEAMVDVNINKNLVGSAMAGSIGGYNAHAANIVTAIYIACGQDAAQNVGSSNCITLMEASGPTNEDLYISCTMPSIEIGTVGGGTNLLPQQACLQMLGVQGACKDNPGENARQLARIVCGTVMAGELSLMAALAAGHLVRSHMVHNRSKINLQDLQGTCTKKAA
Procedure: A second method (designated COR screen) employed the procedure detailed by T. Kita, et al., J. Clin. Invest., (1980), 66: 1094-1100. In this method, the amount of ^14 C-HMG-CoA converted to ^14 C-mevalonate in the presence of a purified enzyme preparation of HMG-CoA reductase was measured. The micromolar concentration of compound required for 50% inhibition of cholesterol synthesis was measured and recorded as an IC50 value.

[1] = tested on: sterol synthesis by rat liver homogenate; test: CSI screen: inhibition of sterol synthesis (14C-acetate incorporation into nonsaponifiable lipid) by rat liver homogenate; type: biochemical; conditions: one-hour period, footnote: adjusted for a standard IC50 value for compactin (internal standard)
Procedure: The ability of compounds of the present invention to inhibit the biosynthesis of cholesterol was measured by two methods. A first method (designated CSI screen) utilized the procedure described by R. E. Dugan et al., Archiv. Biochem. Biophys., (1972), 152, 21-27. In this method, the level of HMG-CoA enzyme activity in standard laboratory rats is increased by feeding the rats a chow diet containing 5% cholestyramine for four days, after which the rats are sacrificed.
The rat livers are homogenized, and the incorporation of cholesterol-^14 C-acetate into nonsaponifiable lipid by the rat liver homogenate is measured. The micromolar concentration of compound required for 50% inhibition of sterol synthesis over a one-hour period is measured, and expressed as an IC50 value.

SMILES | IC50 (HMG-CoA reductase) [nM] | IC50 [1] [nM]
CC[C@H](C)C(=O)O[C@H]1CCC=C2C=C[C@H](C)[C@H](CC[C@@H]3C[C@@H](O)CC(=O)O3)[C@H]21 [Compound 5, Compactin, reference compound] | 28 | 26
CC(C)c1c(Br)c(Br)c(-c2ccc(F)cc2)n1CC[C@H]1C[C@H](O)CC(=O)O1 (relative stereo) [Compound 3, 6-[2-[2-(4-fluorophenyl)-3,4 dibromo-5-(1-methylethyl)-1H-pyrrol-1-yl]ethyl]tetrahydro-4-hydroxy-trans-2H-pyran-2-one] | 1 | 220
CC(C)c1c(Cl)c(Cl)c(-c2ccc(F)cc2)n1CC[C@H]1C[C@H](O)CC(=O)O1 (relative stereo) [Compound 2, 6-[2-[2-(4-fluorophenyl)-3,4-dichloro-5-(1-methylethyl)-1H-pyrrol-1-yl]ethyl]tetrahydro-4-hydroxy-trans-2H-pyran-2-one] | 24 | 160
CC(C)c1ccc(-c2ccc(F)cc2)n1CC[C@H]1C[C@H](O)CC(=O)O1 (relative stereo) [Compound 1, trans-6-[2-[2-(4-fluorophenyl)-5-(1-methylethyl)-1H-pyrrol-1-yl]ethyl]tetrahydro-4-hydroxy-2H-pyran-2-one] | 280 | 480
COC(=O)c1c(C(=O)OC)c(C(C)C)n(CC[C@@H]2C[C@@H](O)CC(=O)O2)c1-c1ccc(F)cc1 (relative stereo) [Compound 4, Dimethyl-2-(4-Fluorophenyl)-5-(1-methylethyl)-1-[2-(tetrahydro-4-hydroxy-6-oxo-2H-pyran-2-yl)ethyl]-1H-pyrrole-3,4-dicarboxylate] | 80 | 110
